Patent US20260132129A1 (Genesis Therapeutics, Inc., priority 2022, published 2026)

Target: T1, PI3Kα H1047R (T47D cells) (Homo sapiens, UniProt P42336, H1047R)
T1 construct: endogenous in cells; host or cells: T47D cells
Assay: PI3Kα cellular assay: pAKT HTRF in T47D cells after EGF stimulation
Assay type: cell-based
Details: for IC50: T47D cells (PI3Kα H1047R), pAKT S473 HTRF, 1 hr compound, 20 ng/ml EGF 10 min
How it was run: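 T47D cells (PIK3CA H1047R) serum-starved 16 h, then treated 1 h at 37 °C with compound (10,000 nM top, 3-fold steps to 0.5 nM). After 10 min stimulation with 20 ng/mL EGF, cells were lysed and pAKT measured by HTRF.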

T1 sequence (P42336 whole entry H1047R): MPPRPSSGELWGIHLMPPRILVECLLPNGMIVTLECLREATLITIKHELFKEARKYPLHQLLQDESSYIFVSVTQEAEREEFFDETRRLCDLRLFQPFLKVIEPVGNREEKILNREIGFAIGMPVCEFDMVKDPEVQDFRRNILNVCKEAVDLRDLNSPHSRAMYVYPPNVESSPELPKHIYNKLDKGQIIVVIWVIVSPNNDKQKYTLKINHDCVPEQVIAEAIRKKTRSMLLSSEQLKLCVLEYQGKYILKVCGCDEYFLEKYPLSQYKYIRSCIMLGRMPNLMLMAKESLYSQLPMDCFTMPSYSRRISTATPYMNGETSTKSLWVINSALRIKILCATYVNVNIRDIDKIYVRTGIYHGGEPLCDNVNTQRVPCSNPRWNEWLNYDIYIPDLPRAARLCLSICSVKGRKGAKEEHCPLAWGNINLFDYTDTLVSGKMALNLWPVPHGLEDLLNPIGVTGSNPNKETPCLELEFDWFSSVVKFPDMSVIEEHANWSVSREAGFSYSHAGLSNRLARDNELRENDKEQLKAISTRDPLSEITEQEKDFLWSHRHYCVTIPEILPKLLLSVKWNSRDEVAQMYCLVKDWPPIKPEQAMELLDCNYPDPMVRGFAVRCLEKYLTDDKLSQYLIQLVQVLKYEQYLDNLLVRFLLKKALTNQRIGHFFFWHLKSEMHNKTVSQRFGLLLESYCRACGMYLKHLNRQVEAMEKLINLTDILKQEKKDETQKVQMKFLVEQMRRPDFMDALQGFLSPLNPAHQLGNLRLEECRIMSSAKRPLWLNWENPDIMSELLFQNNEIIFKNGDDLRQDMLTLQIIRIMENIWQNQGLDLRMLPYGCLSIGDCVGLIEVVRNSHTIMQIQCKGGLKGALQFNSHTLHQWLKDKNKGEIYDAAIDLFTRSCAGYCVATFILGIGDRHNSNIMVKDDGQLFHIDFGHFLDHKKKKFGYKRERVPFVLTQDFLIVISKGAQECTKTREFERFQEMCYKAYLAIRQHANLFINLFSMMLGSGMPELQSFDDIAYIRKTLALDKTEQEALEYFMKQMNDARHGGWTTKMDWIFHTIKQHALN
T1 sequence (P27986 whole entry partner): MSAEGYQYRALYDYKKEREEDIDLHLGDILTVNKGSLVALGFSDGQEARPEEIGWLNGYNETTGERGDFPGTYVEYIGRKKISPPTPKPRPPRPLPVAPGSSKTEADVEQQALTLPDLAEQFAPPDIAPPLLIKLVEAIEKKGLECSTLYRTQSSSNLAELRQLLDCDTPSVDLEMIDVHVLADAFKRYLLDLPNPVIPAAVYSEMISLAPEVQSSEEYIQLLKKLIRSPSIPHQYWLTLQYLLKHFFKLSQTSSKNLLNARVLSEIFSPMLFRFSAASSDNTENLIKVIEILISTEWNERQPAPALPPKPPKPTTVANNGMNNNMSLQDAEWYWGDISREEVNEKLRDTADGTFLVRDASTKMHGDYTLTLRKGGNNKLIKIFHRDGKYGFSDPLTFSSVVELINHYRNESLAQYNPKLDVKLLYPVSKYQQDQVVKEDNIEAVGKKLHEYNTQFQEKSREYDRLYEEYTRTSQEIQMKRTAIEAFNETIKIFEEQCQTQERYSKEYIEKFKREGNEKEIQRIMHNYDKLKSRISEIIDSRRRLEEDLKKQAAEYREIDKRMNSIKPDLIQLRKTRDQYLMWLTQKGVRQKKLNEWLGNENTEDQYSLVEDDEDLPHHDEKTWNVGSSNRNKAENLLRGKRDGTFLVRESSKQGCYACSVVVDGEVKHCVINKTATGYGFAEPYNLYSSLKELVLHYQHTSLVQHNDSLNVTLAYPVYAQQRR

Row | SMILES | T47D pAKT S473 HTRF IC50 (H1047R): T47D (H1047R) selectivity over SKBR3 (WT) | IC50 [nM]
1 | Cc1cc([C@H](C)Nc2ccccc2C(=O)O)c2nc(-c3ccccc3)cc(=O)n2c1 [Compound 423] | C (C denotes ≤5-fold) | –
2 | Cc1cc([C@H](C)Nc2ccccc2C(=O)O)c2nc(N3CCC(C)(C)CC3)cc(=O)n2c1 [Compound 432] | C (C denotes ≤5-fold) | –
3 | Cc1cc(C(C)Nc2ccccc2C(=O)O)c2nc(N3CCC(NS(C)(=O)=O)CC3)cc(=O)n2c1 (stereo not shown) [Compound 433] | C (C denotes ≤5-fold) | –
4 | Cc1cc(C(C)Nc2ccccc2C(=O)O)c2nc(N3CCC(NS(C)(=O)=O)CC3)cc(=O)n2c1 (stereo not shown) [Compound 434] | C (C denotes ≤5-fold) | –
5 | Cc1cc(C(C)Nc2ccccc2C(N)=O)c2nc(-c3ccncc3)cc(=O)n2c1 (stereo not shown) [Compound 438] | C (C denotes ≤5-fold) | > 2000
6 | Cc1cc([C@@H](C)Nc2ccccc2C(=O)O)c2nc(N3CC[Si](C)(C)CC3)cc(=O)n2c1 [Compound 446] | C (C denotes ≤5-fold) | > 2000
7 | Cc1cc(C(C)Nc2ccccc2C(=O)O)c2nc(-c3ccc4c(c3)c(N(C)C)nn4C)cc(=O)n2c1 (stereo not shown) [Compound 457] | A (A denotes >20-fold) | < 100
8 | Cc1cc(C(C)Nc2ccccc2C(=O)O)c2nc(-c3ccnnc3)cc(=O)n2c1 (stereo not shown) [Compound 460] | B (B denotes 20-fold≥value>5-fold) | 500 to 2000
9 | Cc1cc([C@@H](C)Nc2ccccc2C(=O)O)c2nc(-c3cc[nH]c(=O)c3)cc(=O)n2c1 [Compound 461] | C (C denotes ≤5-fold) | > 2000
10 | Cc1cc([C@H](C)Nc2ccccc2C(=O)O)c2nc(-c3cc[nH]c(=O)c3)cc(=O)n2c1 [Compound 462] | C (C denotes ≤5-fold) | > 2000
11 | Cc1cc(C(C)Nc2ccccc2C(=O)O)c2nc(-c3ccc4c(c3)NC(CO)N4)cc(=O)n2c1 (stereo not shown) [Compound 466] | C (C denotes ≤5-fold) | > 2000
12 | Cc1cc(C(C)Nc2ccccc2C(=O)O)c2nc(N3CCN(c4ccncc4)CC3)cc(=O)n2c1 (stereo not shown) [Compound 467] | C (C denotes ≤5-fold) | > 2000
13 | Cc1cc(C(C)Nc2ccccc2C(=O)O)c2nc(N3CCC4(CC3)COC4)cc(=O)n2c1 (stereo not shown) [Compound 471] | B (B denotes 20-fold≥value>5-fold) | 500 to 2000
14 | Cc1cc(C(C)Nc2ccccc2C(=O)O)c2nc(N3CCC(C)(O)CC3)cc(=O)n2c1 (stereo not shown) [Compound 473] | C (C denotes ≤5-fold) | > 2000
15 | Cc1cc([C@H](C)Nc2ccccc2C(=O)O)c2nc(-c3ccc4c(c3)CC(=O)N4)cc(=O)n2c1 [Compound 478] | A (A denotes >20-fold) | 100 to 500
16 | Cc1cc([C@@H](C)Nc2ccccc2C(=O)O)c2cc(-c3ccncn3)cc(=O)n2c1 [Compound 481] | C (C denotes ≤5-fold) | > 2000
17 | Cc1cc([C@H](C)Nc2ccccc2C(=O)O)c2cc(-c3ccncn3)cc(=O)n2c1 [Compound 482] | B (B denotes 20-fold≥value>5-fold) | 500 to 2000
18 | Cc1cc([C@@H](C)Nc2ccccc2C(=O)O)c2cc(-c3ccnnc3)cc(=O)n2c1 [Compound 483] | B (B denotes 20-fold≥value>5-fold) | 500 to 2000
19 | Cc1cc([C@H](C)Nc2ccccc2C(=O)O)c2cc(-c3ccnnc3)cc(=O)n2c1 [Compound 484] | C (C denotes ≤5-fold) | > 2000
20 | CONC(=O)c1ccc(-c2cc(=O)n3cc(C)cc([C@@H](C)Nc4ccccc4C(=O)O)c3n2)cc1 [Compound 485] | C (C denotes ≤5-fold) | > 2000
21 | CONC(=O)c1ccc(-c2cc(=O)n3cc(C)cc([C@H](C)Nc4ccccc4C(=O)O)c3n2)cc1 [Compound 486] | A (A denotes >20-fold) | 100 to 500

More lines, now with the values ahead:

Row | T47D pAKT S473 HTRF IC50 (H1047R): T47D (H1047R) selectivity over SKBR3 (WT) | IC50 [nM] | SMILES
22 | C (C denotes ≤5-fold) | > 2000 | Cc1cc(C(C)Nc2ccccc2C(=O)O)c2nc(-c3ccc(C(=O)NO)cc3)cc(=O)n2c1 (stereo not shown) [Compound 487]
23 | C (C denotes ≤5-fold) | > 2000 | Cc1cc([C@@H](C)Nc2ccccc2C(=O)O)c2nc(-c3ccc4nc(CO)[nH]c4c3)cc(=O)n2c1 [Compound 488]
24 | C (C denotes ≤5-fold) | > 2000 | Cc1cc([C@H](C)Nc2ccccc2C(=O)O)c2nc(-c3ccc4nc(CO)[nH]c4c3)cc(=O)n2c1 [Compound 489]
25 | C (C denotes ≤5-fold) | > 2000 | Cc1cc(C(C)Nc2ccccc2C(=O)O)c2nc(N3CCC4(CC3)CC(=O)N4)cc(=O)n2c1 (stereo not shown) [Compound 490]
26 | C (C denotes ≤5-fold) | > 2000 | Cc1cc(C(C)Nc2ccccc2C(=O)O)c2nc(N3CCC4(CC3)CNC4=O)cc(=O)n2c1 (stereo not shown) [Compound 491]
27 | C (C denotes ≤5-fold) | > 2000 | Cc1cc(C(C)Nc2ccccc2-c2ccnnc2)c2nc(N3CCOCC3)cc(=O)n2c1 (stereo not shown) [Compound 494]
28 | C (C denotes ≤5-fold) | > 2000 | Cc1cc([C@@H](C)Nc2ccccc2-c2ccnnc2)c2nc(N3CCOCC3)cc(=O)n2c1 [Compound 495]
29 | C (C denotes ≤5-fold) | 500 to 2000 | Cc1cc([C@H](C)Nc2ccccc2-c2ccnnc2)c2nc(N3CCOCC3)cc(=O)n2c1 [Compound 496]
30 | B (B denotes 20-fold≥value>5-fold) | 500 to 2000 | Cc1cc([C@@H](C)Nc2ccccc2C(=O)O)c2nc(-c3cc(C)c4[nH]c(=O)[nH]c4c3)cc(=O)n2c1 [Compound 497]
31 | C (C denotes ≤5-fold) | > 2000 | Cc1cc([C@H](C)Nc2ccccc2C(=O)O)c2nc(-c3cc(C)c4[nH]c(=O)[nH]c4c3)cc(=O)n2c1 [Compound 498]
32 | A (A denotes >20-fold) | 100 to 500 | Cc1cc([C@@H](C)Nc2ccccc2C(=O)O)c2nc(-c3ccc4[nH]c(=O)[nH]c4c3)cc(=O)n2c1 [Compound 499]
33 | C (C denotes ≤5-fold) | > 2000 | Cc1cc([C@H](C)Nc2ccccc2C(=O)O)c2nc(-c3ccc4[nH]c(=O)[nH]c4c3)cc(=O)n2c1 [Compound 500]
34 | C (C denotes ≤5-fold) | > 2000 | Cc1cc([C@@H](C)Nc2ccccc2C(=O)O)c2nc(-c3ccc(C(=O)NO)cc3)cc(=O)n2c1 [Compound 501]
35 | C (C denotes ≤5-fold) | > 2000 | Cc1cc([C@H](C)Nc2ccccc2C(=O)O)c2nc(-c3ccc(C(=O)NO)cc3)cc(=O)n2c1 [Compound 502]
36 | C (C denotes ≤5-fold) | > 2000 | CCc1cc(C(=O)NOC)ccc1-c1cc(=O)n2cc(C)cc([C@@H](C)Nc3ccccc3C(=O)O)c2n1 [Compound 503]
37 | C (C denotes ≤5-fold) | > 2000 | CCc1cc(C(=O)NOC)ccc1-c1cc(=O)n2cc(C)cc([C@H](C)Nc3ccccc3C(=O)O)c2n1 [Compound 504]
38 | C (C denotes ≤5-fold) | > 2000 | Cc1cc(C(C)Nc2ccccc2C(=O)O)c2nc(Nc3ccc4[nH]c(=O)[nH]c4c3)cc(=O)n2c1 (stereo not shown) [Compound 505]
39 | B (B denotes 20-fold≥value>5-fold) | 500 to 2000 | Cc1cc(C(C)Nc2ccccc2C(=O)O)c2nc(-c3ccc4c(c3)NC(=O)C4)cc(=O)n2c1 (stereo not shown) [Compound 506]
40 | C (C denotes ≤5-fold) | > 2000 | CC(=O)Cc1cc2ccc(-c3cc(=O)n4cc(C)cc(C(C)Nc5ccccc5C(=O)O)c4n3)cn2n1 (stereo not shown) [Compound 507]
41 | C (C denotes ≤5-fold) | > 2000 | CC(=O)N1CCC(c2cc(=O)n3cc(C)cc(C(C)Nc4ccccc4C(=O)O)c3n2)CC1 (stereo not shown) [Compound 508]
42 | C (C denotes ≤5-fold) | > 2000 | Cc1cc(C(C)Nc2ccccc2C(=O)O)c2nc(C3CCN(CC(N)=O)CC3)cc(=O)n2c1 (stereo not shown) [Compound 509]
43 | C (C denotes ≤5-fold) | > 2000 | Cc1cc([C@H](C)Nc2ccccc2C(=O)O)c2nc(C3CCN(CC(N)=O)CC3)cc(=O)n2c1 [Compound 510]
44 | C (C denotes ≤5-fold) | > 2000 | CC(=O)N1CCCC(c2cc(=O)n3cc(C)cc(C(C)Nc4ccccc4C(=O)O)c3n2)CC1 (stereo not shown) [Compound 511]
45 | C (C denotes ≤5-fold) | > 2000 | Cc1cc([C@H](C)Nc2ccccc2C(=O)O)c2nc(N3C[C@H](C)C[C@H](C)C3)cc(=O)n2c1 [Compound 513]
46 | B (B denotes 20-fold≥value>5-fold) | 500 to 2000 | Cc1cc(C(C)Nc2ccccc2C(=O)O)c2nc(-c3ccc4[nH]c(=O)[nH]c4c3)cc(=O)n2c1 (stereo not shown) [Compound 514]
